Consider four compounds from patent US10053459B2, “Life-extending agent, life extension method using the life-extending agent, novel dual oxidase activator, method for activating dual oxidase, production of life-extending agent, and production of dual oxidase activator” (National University Corporation Nagoya University, priority 2014, dated 2018).

Where a name gives a salt, the structure may show the parent alone.

For data set [1], the system named is nematode C. elegans, wild-type. As to the kind of experiment: Life test (life assay) of nematode on medium containing the test substance. It counts as in vivo. The note with it: for average life / life-extending effect: 5.0 mM in medium vs 0 mM, FIGS. 3 and 4. The procedure: Pyrroloquinoline quinone disodium salt was mixed with water and sodium hydroxide to obtain test sample concentrate 1 of pH 6. The content of the pyrroloquinoline quinone disodium salt in the test sample concentrate 1 was adjusted to 30 mM. The test sample concentrate 1 was autoclave-sterilized for use. […] Meanwhile, to each E. coli solution cultured in an LB medium (Luria-Bertani broth), the test sample concentrate 1 was added so as to attain the same concentration as that of the pyrroloquinoline quinone disodium salt in the medium of each of the prepared petri dishes. 100 μL of the obtained E. coli solution was seeded in a circular pattern of approximately 2 cm in diameter to the center of each petri dish. […] The petri dish was wrapped in Parafilm during storage. […] These individuals were excluded from the data. […] Petri dishes having media containing different concentrations of the acetone adduct were prepared by the same operation as in Example 1 except that the amount of the test sample concentrate 2 added was adjusted such that the concentration of the acetone adduct in each medium solution was 0 mM (Comparative Example 2) and 5.0 mM (Example 5). […] Petri dishes having media containing different concentrations of the IPQ trisodium salt were prepared by the same operation as in Example 1 except that the amount of the test sample concentrate 3 added was adjusted such that the concentration of the IPQ trisodium salt in each medium solution was 0 mM (Comparative Example 3) and 5.0 mM (Comparative Example 4).

Data set [2] deals with nematode variant gas-1 (fc2). As to the kind of experiment: Life test using variant gas-1 (fc2). The format is in vivo, C. elegans. An excerpt:
(§1) Grown-up individuals were used in the life assay.
(§2) The petri dish was wrapped in Parafilm during storage. […] These individuals were excluded from the data.

Data set [3] concerns nematode line OB265bli-3 (e767); imEx144[bli-3genomic clone]. The data set can be described thus: Life test using line OB265 bli-3 (e767); imEx144[bli-3genomic clone]. It counts as in vivo, C. elegans.
From the text: as §1, §2

Data set [4] has as its system nematode variant age-1 (hx546). The procedure:
(§3) 7.2 g of NaCl, 48 g of agar, 6 g of Bactopeptone (manufactured by Becton, Dickinson and Company), and water (2.4 L including the amount of the sample concentrate to be added) were added into each flask. The flask was autoclaved at 120° C. for 20 minutes or longer and then cooled until the surface temperature of the flask became approximately 45° C. To this flask, 60 mL of a 1 M potassium phosphate solution, 2.4 mL of a 1 M CaCl2 solution, 2.4 mL of a 1 M MgSO4 solution, 2.4 mL of a 750 mg/150 mL cholesterol solution, and a predetermined amount of the 30 mM test sample concentrate 1 were added to obtain a medium solution. The amount of the test sample concentrate 1 added was adjusted such that the concentration of the pyrroloquinoline quinone disodium salt in the medium solution was 0 mM (Comparative Example 1), 0.1 mM (Example 1), 1.0 mM (Example 2), 3.0 mM (Example 3), and 5.0 mM (Example 4). The flask was further cooled until the surface temperature of the flask reached 40 to 41° C. 14 mL of the medium solution was added to each polystyrene petri dish having a diameter of 6 cm and cooled to room temperature to prepare petri dishes having media containing different concentrations of the pyrroloquinoline quinone disodium salt.
(§4) In order to synchronize the ages of nematode individuals at the start of the experiment, parent nematodes were allowed to lay eggs and then removed, and individuals evenly grown for a given period of time after hatching were used. Specifically, five adults (individuals under incubation) were selected and transferred to each petri dish, which was then left at 20° C. for 2 hours (lay period), and the parent nematodes were removed. Then, the petri dish was left at 20° C. for 72 hours. The life test was started when the number of individuals per petri dish reached 10 to 20.
as §1
(§5) The individuals in each petri dish were transferred to a fresh petri dish every day. Information on date, the number of survivors, the number of deaths, the number of missing individuals, etc., was recorded in a score sheet. The petri dish was wrapped in Parafilm during storage. An individual was judged as being dead when no spontaneous behavior was seen and no response was found even by vibration stimulus or contact stimulus. Nematodes are often missing because of running out of the petri dish, being dried at the wall, crawling out from a gap in the medium, for example. Therefore, the number of missing individuals was recorded and excluded from the data. Individuals that died of the eclosion of their children in their bodies, which occurs frequently in certain variants, were recorded as BAG, and individuals that died of hernia were recorded as rupture.
(§6) Nematode variants can be used to determine how PQQ works. A plurality of petri dishes were prepared using the medium containing 5 mM PQQ prepared in Example 4. The life extension test was conducted in the same way as in Example 1 using the prepared petri dishes and each variant shown in Table 2. The results obtained without the addition of PQQ are indicated as 100 for a relative effect.

For data set [5], the system named is nematode variant bli-3 (e767), reduced activity of dual oxidase. The procedure: as §3, §4, §1, §5, §6
For data set [6], the system named is nematode variant bli-3 (im-10), reduced activity of dual oxidase. Here is the method:
as §3, §4, §1, §5, §6

The test system of data set [7] is nematode variant daf-2 (e1370). Here is the method:
as §3, §4, §1, §5, §6

In data set [8] the test system is nematode variant nsy-1 (ky400). Here is the method: as §3, §4, §1, §5, §6
Data set [9] concerns nematode variant pmk-3 (ok-169). The procedure: as §3, §4, §1, §5, §6
In data set [10] the test system is nematode variant skn-1 (zu67). The procedure: as §3, §4, §1, §5, §6
A short description of data set [11]: Stability of test substance in the petri dishes used in the life test (LC analysis). It counts as physicochemical. The settings on record: for Main impurities / Test substance (%): in petri dish medium used in the life test. Here is the method:
The analysis of PQQ sodium salt was conducted under analysis conditions given below. PQQ concentration and purity were measured by high-performance liquid chromatography under conditions shown below.
Apparatus: high-performance liquid chromatography, LC-2010 manufactured by Shimadzu Corp.
Column: YMC-Pack ODS-A, 150×4.6 mm I.D.
Measurement temperature: 40° C.
Detection: absorbance at 259 nm
Eluent: 30 mM acetic acid/70 mM ammonium acetate (pH 5.1)
The reduced pyrroloquinoline quinone, the acetone adduct of pyrroloquinoline quinone, and the IPQ trisodium salt in the petri dishes used in the life test were evaluated for their stability by liquid chromatography analysis (LC analysis). The liquid chromatography analysis can be conducted according to those described above.

Data set [12] is described as follows: Stability of reduced PQQ in agar medium, preservation test (LC and UV spectrum analysis). It counts as physicochemical. The note with it: 30° C. for 3 days. Here is the method: Ultraviolet-visible spectra were measured using a UV spectrometer UV1800 manufactured by Shimadzu Corp.
Reduced PQQ was added to sterile water to prepare a 30 mM dispersion. This dispersion was added so as to make 5 mM in the composition for evaluation described above to prepare a petri dish. The preservation test was conducted at 30° C. for 3 days, followed by LC analysis and UV spectrum analysis. The reduced formed is converted to PQQ under neutral conditions. Therefore, the reduced state can be confirmed by detecting PQQ by the LC analysis and measuring the UV spectrum of a solution thereof in dimethyl sulfoxide. As a result of confirming the state of the reduced PQQ in an agar medium in this way, 86% of all PQQs maintained the reduced state.

The mark [13] stands for this setting: 5 mM PQQ, result without PQQ = 100.

Consider `O=C(O)c1cc(C(=O)O)c2c(n1)C(=O)C(=O)c1cc(C(=O)O)[nH]c1-2` [PQQ, Pyrroloquinoline quinone disodium salt], for which the “average life (survival rate vs rearing days after becoming adults)” value in [1] (0.1, 1.0, 3.0, 5.0 mM in medium vs 0 mM, FIGS. 1 and 2) is “tends to extend the average life”. For the same compound, the “Average life after becoming adult” value in data set [1] (wild-type, 5 mM PQQ in medium) was 15.0 ± 0.6 days; in data set [2] (5 mM PQQ in medium) it was 14.7 ± 0.9 days; in [3] (OB265bli-3 (e767), imEx144[bli-3genomic clone], 5 mM PQQ in medium) it was 19.8 ± 0.3 days; in [4] (5 mM PQQ in medium), 23.4 ± 0.9 days; in data set [5] (5 mM PQQ in medium), 13.5 ± 0.4 days; in data set [6] (5 mM PQQ in medium) it was 11.7 ± 0.4 days. In addition, the “Average life after becoming adult” value in [7] (5 mM PQQ in medium) amounted to 34.6 ± 0.9 days; in data set [8] (nsy-1 (ky400), 5 mM PQQ in medium), 16.0 ± 0.3 days; in data set [9] (pmk-3 (ok-169), 5 mM PQQ in medium), 17.9 ± 0.4 days; in data set [10] (skn-1 (zu67), 5 mM PQQ in medium), 12.8 ± 0.2 days. Besides, the Relative value in data set [1] (wild-type, 5 mM PQQ, result without PQQ = 100) is 140; in data set [2] (setting [13]) it was 111; in data set [3] (OB265bli-3 (e767), imEx144[bli-3genomic clone], 5 mM PQQ, result without PQQ = 100) it was 122; in data set [4] (setting [13]) it was 123; in data set [5] (setting [13]) it was 87; in data set [6] (setting [13]), 99. The Relative value in data set [7] (setting [13]) was found to be 121; in [8] (nsy-1 (ky400), 5 mM PQQ, result without PQQ = 100), 104; in data set [9] (pmk-3 (ok-169), 5 mM PQQ, result without PQQ = 100), 90; in [10] (skn-1 (zu67), 5 mM PQQ, result without PQQ = 100) it was 96. Moreover, the “life-extending effect (in words)” value in [3] (bli-3 gene-deficient line transfected with the bli-3 gene, Example 15, 5 mM PQQ) is “extended”; in data set [8] (nsy-1 variant, 5 mM PQQ) it was “strongly suppressed”; in [9] (pmk-3 variant, 5 mM PQQ), “strongly suppressed”; in [10] (skn-1 gene variant, 5 mM PQQ) it was “strongly suppressed”.
Regarding `O=C(O)c1cc(C(=O)O)c2c(n1)c(O)c(O)c1cc(C(=O)O)[nH]c12` [Reduced pyrroloquinoline quinone, reduced pyrroloquinoline quinone], the Main impurities entry is listed as “IPQ” in data set [11] and “PQQ” in [12] (5 mM in agar medium petri dish). In addition, the “Test substance (%)” value in [11] was “Reduced pyrroloquinoline quinone 65%”; in data set [12] (5 mM in agar medium petri dish, LC and UV analysis) it was “Reduced pyrroloquinoline quinone 85%”. Besides, the “share of all PQQs that maintained the reduced state” value in data set [12] (5 mM in agar medium, LC and UV spectrum analysis) came to 86%.
As to `CC(=O)CC1(O)C(=O)c2cc(C(=O)O)[nH]c2-c2c(C(=O)O)cc(C(=O)O)nc21` (stereo not drawn) [acetone adduct of pyrroloquinoline quinone], the “average life / life-extending effect” value in data set [1] was “tends to extend the average life”. Also, in [11], the Main impurities result was “PQQ” and the “Test substance (%)” value is 92%. Moreover, in [11] (petri dish medium with peptone), the “detection of IPQ (formed by reaction with amino acids of the medium)” value is listed as “not detected”.
On to `O=C(O)c1cc2c(=O)c3ncn4c(C(=O)O)cc(C(=O)O)c(c2[nH]1)c34` [IPQ, trisodium salt of imidazoloquinone, reference compound], for which the “average life / life-extending effect” value in data set [1] was “small life-extending effect”. The “Test substance (%)” value in [11] is recorded as “IPQ100%”.
